According to patent publication US11389452B2, “Methods for increasing blood plasma 2′-deoxyuridine (dUrd) and thymidylate synthase inhibition” (Isofol Medical AB, priority 2017, dated 2022):
Blank lines part the entries; values can stand above or below the compound they belong to.

Columns and labels:
colorectal cancer = conditions: cited from earlier work
TS = conditions: cited from earlier work
[1] = target: T1, thymidylate synthase (TS) (Homo sapiens, UniProt P04818); assay: Incremental plasma dUrd (surrogate marker of TS inhibition) 24 hours after bolus 5-FU plus folate in mCRC patients, by LC-MS/MS; format: in vivo; conditions: for Mean (t24 − t0) plasma dUrd: 24 hours
T1 construct: endogenous in cells; host or cells: patients with metastatic colorectal cancer (in vivo); plasma sampled
T1 sequence (P04818 2-313 limits assumed): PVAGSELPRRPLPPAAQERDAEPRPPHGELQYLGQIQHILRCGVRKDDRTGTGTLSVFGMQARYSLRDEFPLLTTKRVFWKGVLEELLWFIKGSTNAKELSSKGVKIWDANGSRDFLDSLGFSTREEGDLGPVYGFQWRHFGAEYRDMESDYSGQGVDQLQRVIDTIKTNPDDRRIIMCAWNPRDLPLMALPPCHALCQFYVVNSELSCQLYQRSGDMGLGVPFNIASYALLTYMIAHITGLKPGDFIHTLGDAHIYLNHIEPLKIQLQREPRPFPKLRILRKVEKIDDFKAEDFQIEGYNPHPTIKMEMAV
Method: The safety and efficacy of [6R]-5,10-methylenetetrahydrofolate ([6R]-MTHF) is analyzed in an open-label, multiple-site, Phase I/II Dose Cohort Trial (ISO-CC-005) in patients with stage IV colorectal cancer (mCRC) to determine the safe and tolerable i.v. bolus dose of 6R-MTHF in combination with standard doses of 5-FU (500 mg/m^2) alone or in combination with a fixed dose of Bevacizumab, Oxaliplatin or Irinotecan in patients with stage IV colorectal cancer. Among groups of patients (n≥3) ascending 6R-MTHF doses of 30-240 mg/m^2 BSA are being evaluated in the presence of various permutations of the cytotoxics, 5-FU alone or 5-FU plus oxaliplatin, bevacizumab or irinotecan given at standard dose levels. The study is expected to be completed by year end 2017. A summary of the study design and each study arm is depicted below in Table 1.
In Gothenburg, for almost two decades, clinical, treatment and outcomes data on all patients with CRC have been collected. Plasma and tissue samples have been stored in a biobank under appropriate physical conditions for long term storage. The database and the biobank operate under the auspices of the relevant ethical and regulatory permissions. Patients having been treated with the standard 5-FU dose, 500 mg/m^2 plus i.v. bolus LV, 60 mg/m^2 (equivalent to 30 mg/m^2 of LLV) were randomly drawn from the databank.
The present study is a historical group comparison study. All patients have been treated with a standard dose of 500 mg 5-FU given as a bolus injection plus the respective folate 6R-MTHF or LV also given as bolus injections.
All patients have been measured during two consecutive treatment cycles with 5-FU. Values for dUrd were measured immediately before injection of 5-FU (t0) and after 24 hours (t24). Mean values and standard deviations for differences between t24 and t0 were calculated for the patients on each dose level of 30 and 60 mg/m^2 6R-MTHF, respectively. Some values have also been assayed and calculated for 240 mg/m^26R-MTHF.
Twenty-four patients with metastatic colorectal cancer (mCRC) treated with 5-FU plus 60 mg/m^2 LV were drawn at random from the data base and levels of dUrd were determined at t0 and t24 from two treatment cycles for each patient and the mean values and standard deviations for the differences between t24 and t0 were calculated in the same way as for the 6R-MTHF patients. Since LV is a 50:50 mixture of the natural (1-formyl-tetrahydrofolate) and unnatural (d-formyl-tetrahydrofolate) isomers the active isomer constitutes one half of the LV doses given. The molecular weights for LV and 6R-MTHF are very similar and therefore 60 mg of LV may be considered as equimolar with 30 mg of 6R-MTHF.
The differences between all four groups were tested by means of the Friedman two-way analysis of variance and thereafter the difference between the two equimolar groups LV 60 mg/m^2 and 6R-MTHF 30 mg/m^2 was tested by means of the Mann-Whitney U test. P-values less than 0.05 were considered significant.
Plasma dUrd was determined by a method comprising liquid chromatography followed by tandem mass spectrometry broadly summarized as follows. Plasma samples were removed from −80° C. freezer, trichloroacetic acid was added to the plasma, and the samples mixed and centrifuged. The supernatant was filtered in a 10 kDa molecular weight cut-off membrane filter and again centrifuged for 30 min. The solution at the bottom of the tube was then ready for LC-MS/MS analysis. […]

pancreas cancer = conditions: CoFactor combined with 5-FU, phase I/II trial; cited from earlier work

Compound: O=c1[nH]cc(F)c(=O)[nH]1 [5-FU, 5-Fluorouracil]
overall response rate (colorectal cancer; 5-FU alone): 10-15%

Compound: Nc1nc2c(c(=O)[nH]1)N1CN(c3ccc(C(=O)N[C@@H](CCC(=O)O)C(=O)O)cc3)C[C@@H]1CN2 (single isomer, unassigned) [(6S)-isomer]
effect on the natural [6R]-isomer as co-substrate for TS (TS): partial competitive inhibitor

Mean (t24 − t0) plasma dUrd ([1]; active dose 30 mg/m2 BSA LLV, given as 60 mg/m2 d,l-LV bolus, with 5-FU 500 mg/m2 bolus, 48 cycles): 48.7 pmol/mL
Compound: Nc1nc(=O)c2c([nH]1)NC[C@H](CNc1ccc(C(=O)N[C@@H](CCC(=O)O)C(=O)O)cc1)N2C=O [LLV]

Mean (t24 − t0) plasma dUrd ([1]; 6R-MTHF 30 mg/m2 BSA bolus with 5-FU 500 mg/m2 bolus, 18 cycles): 74.7 pmol/mL | Mean (t24 − t0) plasma dUrd ([1]; 6R-MTHF 60 mg/m2 BSA bolus with 5-FU 500 mg/m2 bolus, 16 cycles): 91.8 pmol/mL | Mean (t24 − t0) plasma dUrd ([1]; 6R-MTHF 240 mg/m2 BSA bolus with 5-FU 500 mg/m2 bolus, 4 cycles): 99.9 pmol/mL | level of dUrd compared with equimolar LV ([1]; [6R]-MTHF 30 mg/m2 vs LV 60 mg/m2, together with 5-FU, p=0.03): significantly higher level of dUrd
Compound: Nc1nc2c(c(=O)[nH]1)N1CN(c3ccc(C(=O)N[C@@H](CCC(=O)O)C(=O)O)cc3)C[C@H]1CN2 [6R-MTHF, [6R]-5,10-methylenetetrahydrofolic acid]

Compound: Nc1nc2c(c(=O)[nH]1)N(C=O)C(CNc1ccc(C(=O)N[C@@H](CCC(=O)O)C(=O)O)cc1)CN2 (some centres unmarked) [LV, 5-formyl tetrahydrofolate]
overall response rates (colorectal cancer; LV added to 5-FU): over 20%

Compound: Nc1nc(=O)c2c([nH]1)NCC1CN(c3ccc(C(=O)N[C@@H](CCC(=O)[O-])C(=O)[O-])cc3)CN21.[Ca+2] (stereo partly drawn) [CoFactor®, (dl)-5,10,-methylenepteroyl-monoglutamate calcium salt]
clinical benefit (stable disease or tumor response), share of patients (pancreas cancer): 40% | response rate (colorectal cancer; Phase II trial, previously untreated metastatic colorectal cancer): 35% | efficacy and safety compared with leucovorin (colorectal cancer; Phase IIb study in colorectal cancer): not demonstrated to be more efficacious than leucovorin
